Test results as given in patent publication US5574059A, “Treating disorders mediated by vascular smooth muscle cell proliferation” (priority 1995, dated 1996).
Where two headings read alike, the source gives them in different places.

Experiments:
I2 imidazoline receptors = test: inhibition of 3H-idazoxan (5 nM) binding to rat aortic smooth muscle cell membranes; settings: Table 2; 3H-idazoxan 5 nM; rat aortic smooth muscle cell membranes; read-out: Ki
Experimental: Binding to I2 imidazoline receptors is determined by the following assay. Membranes are prepared from cultured cells for ligand binding as described in Regunathan, S., et al, Biochem. Pharmacol. 45, 1667-1675 (1993) and Regunathan, S., et al, J. Neurosci. Res. 34, 681-688 (1993) and the disclosure in these on this is incorporated herein by reference. In particular, harvested rat aortic smooth muscle cells are homogenized in Hepes-sucrose buffer (pH 7.4) with a Teflon-glass homogenizer and centrifuged at 1000 × g for 10 minutes. The pellets are suspended in ice-cold Tris-HCl buffer (pH 7.7) with 5mM ethylene diamine tetracetic acid and homogenized using a Polytron (Brinkman Instruments) for 10 seconds. The homogenate is centrifuged at 40,000 × g for 30 minutes to produce a membrane pellet. The membrane pellet is washed three times by resuspending in buffer and re-centrifuging. The washed pellet is suspended in fresh Tris-HCl buffer (pH 7.4) to provide approximately 100 μg protein per assay tube. Binding assays are performed in Tris-HCl buffer (pH 7.7) using 5 nM of […]. Non-specific binding is defined by 100 μM of unlabelled idazoxan which will inhibit the specific binding of ^3 H-idazoxan. Thus the binding remaining in the presence 100 μM of idazoxan is due to non-specific binding and this will be substracted from total binding to calculate the specific binding. Following incubation at 25° C. for 30 minutes, reaction is terminated by rapid vacuum filtration over Whatman GF/B filters and washed with 10 ml of ice-cold buffer. Filters are suspended in scintillation fluid and radioactivity counted in a liquid scintillation counter. Membrane protein is assayed by Coomassie Blue method (Pierce) using bovine serum albumin as standard.
Determination of inhibition constant (Ki) for each drug is determined as follows: The binding of ^3 H-idazoxan to membranes of vascular smooth muscle cells is determined in the presence of 0.1 nM to 100 μM concentrations of potential drug. The percent inhibition of specific binding of ^3 H-idazoxan by each concentration is calculated and plotted against concentration. The data is analyzed by non-linear curve fitting program, LIGAND and the IC50 value for each potential drug is calculated. The affinity for each drug (Ki) for I2 imidazoline receptors is calculated using the formula Ki =IC50 /1+L/Kd where L is the concentration of ^3 H-idazoxan used for binding and Kd is the dissociation constant for ^3 H-idazoxan for I2 imidazoline receptors. The dissociation constant (Kd) is determined by Scatchard analysis of the saturation binding of ^3 H-idazoxan using the formula [formula] where B and F are the amount of bound and free ligand, respectively, and Bmax is the number of binding sites.
Primary cultures of rat-aortic smooth muscle cells were prepared by a modification (described in Erlinge, Do, et al, Am. J. Physiol. 265, H1089-1097, 1993) of the method of Meyer-Lehnert and Schrier (Meyer-Lehnert, H., et al, Hypertension 13,350-361, 1989), the disclosure of these cited articles being incorporated herein by reference. Briefly, rats were killed by anesthetic overdose and the aorta were removed and incubated with collagenase (2 mg/ml) in Dulbecco's modified Eagle's minimum essential medium (DMEM). The vessel was stripped of adventitia, cut longitudinally and the intima scraped away. After further collagenase treatment, the remaining tissue was passed 20 times through 18 and 16 gauge needles. The resulting cell suspension was centrifuged at 500 × g for 5 minutes and resuspended in DMEM containing penicillin (100 units/ml), streptomycin (100 μg/ml), 2 mM L-glutamine and 10% fetal calf serum. The suspended cells were plated in T-75 flasks, cultured until confluent, and subcultured in 100 mm plates. The confluent cells were harvested and membranes were prepared. Cell viability was determined by trypan blue exclusion.

[1] = system: rat aortic smooth muscle cells; test: serum-stimulated proliferation, 3H-thymidine incorporation into DNA; format: cell-based; settings: for IC50: Rattus norvegicus, read-out: 3H-thymidine incorporated (IC50)
Experimental: Inhibition of serum-stimulated proliferation of rat aortic smooth muscle cells is determined as follows: The antiproliferative effect of potential drug is determined by measuring the incorporation of ^3 H-thymidine into cellular DNA. Exposure of quiescent vascular smooth muscle cell to serum, which contains many growth factors, results in a large increase in cellular proliferation as measured by ^3 H-thymidine incorported into DNA. The inhibitory effect of potential drug on serum-stimulated proliferation is tested by adding a drug before the addition of serum and determining if the serum-stimulated proliferation is reduced. […] In that event, antagonizing of the antiproliferative effect of idazoxan is determined by adding antagonist before the addition of idazoxan to serum-stimulated vascular smooth muscle cells.
In this experiment, the proliferation of vascular smooth muscle cells was determined by measuring DNA replication. The incorporation of ^3 H-thymidine into DNA was used to measure the replication of DNA as described in Erlinge, D., et al, Am. J. Physiol. 265, H1089-H1097 (1993) which is incorporated herein by reference.
Rat aortic smooth muscle cells prepared as described in In Vitro Example 1 were plated into 24-well plates at a density of about 30,000 cells/well in 10% fetal calf serum (FCS). After 48 hours, the cells were starved in 0.5% FCS for another 48 hours to decrease proliferation and induce quiescence. The medium was replaced by serum-free medium 24 hours prior to addition of drug (drugs are described below) and 10% fetal calf serum or only 10% fetal calf serum in the case of the control. The cells were then incubated for 24 hours and ^3 H-thymidine (1 μCi/well) was added at hour 20. At the end of the 24 hour period, the medium was aspirated and the cells were washed three times with phosphate-buffered saline and twice with ice-cold trichloroacetic acid. Fixed cells were then solubilized in 0.2M NaOH and sonicated. A 100 μl aliquot was used for scintillation counting.

[2] = Example I: patient with intermittent claudication, iliac artery plaques; format: in vivo, human; settings: over 30 days oral; idazoxan 50 and 75 mg/day, UK 14,304 125, naphazoline 125, cirazoline 75, agmatine 900 mg/day
From the text: A person presents with progressive symptoms of intermittent claudication in both legs.

[3] = Example II: patient with narrowing of right common carotid artery, balloon angiography; format: in vivo, human; settings: idazoxan 50 or 75 mg/day two weeks before and 3 months after balloon angiography; UK 14,304 125, cirazoline 60, naphazoline 125, agmatine 900 mg/day
Experimental: A person presents with a history of intermittent brief episodes of transient monocular blindness in the right eye associated with clumsiness and weakness of the left arm and leg. Angiography indicates substantial narrowing of the right common carotid artery. They are with treated with idazoxan at a dosage of 50 or 75 mg/day for two weeks preceding balloon angiography and for 3 months thereafter.

[4] = Example III: patient with coronary artery disease, angioplasty; format: in vivo, human; settings: idazoxan 50 mg/day continued for 3 months; substitutes, dose not stated
Experimental: A person presents with the onset of chest pain on exertion. […] Ten days before angioplasty, the patient is begun on 75 or 100 mg/day of idazoxan. […] Treatment with 50 mg/day idazoxan is continued for 3 months.

[5] = Example IV: patient with fibromuscular dysplasia of the renal artery, angioplasty; format: in vivo, human; settings: idazoxan 75 mg/day; UK 14,304 60, naphazoline 125, cirazoline 60, agmatine 900 mg/day
[6] = Example V: patient with Type I diabetes mellitus, overgrowth of retinal vessels; format: in vivo, human; settings: idazoxan 75 mg/day; UK 14,304 60, naphazoline 125, cirazoline 60, agmatine 900 mg/day
From the text: A person with Type I diabetes mellitus and maintained on insulin presents with progressive symptoms of loss of visual acuity bilaterally with evidence on opthalmascopic examination of overgrowth of retinal vessels and hemorrhages.

[7] = 10% fetal calf serum stimulated

For `NCCCCN=C(N)N` [Agmatine, 4-(aminobutylguanidine)], the Ki (I2 imidazoline receptors) was 0.24 ± 0.025 µM, the “inhibition of vascular smooth muscle cell proliferation, in words” value [1, 7] was “weakly inhibited” and the IC50 [1] was 340 ± 29 µM. The “symptoms of intermittent claudication” value [2] was “stabilization of symptoms”, the “symptoms and restenosis of the vessel” value [3] was “comparable results” and the “symptoms / restenosis after angioplasty” value [4] was “comparable results, i.e., no restenosis”. For the same compound, the “re-elevation of pressure / restenosis of the renal artery” value [5] was “comparable results, i.e., no restenosis” and the “progression and visual symptoms” value [6] was “comparable results, i.e., no restenosis”.

With `Brc1c(NC2=NCCN2)ccc2nccnc12` [UK 14,304, 5-bromo-N-(4,5-dihydro-1-H-imidazol-2-yl)-6-quinoxalinamine] the Ki (I2 imidazoline receptors) was 0.02 ± 0.0014 µM, the “inhibition of vascular smooth muscle cell proliferation, in words” value [1, 7] was “potently inhibited” and the IC50 ([1]; 10% fetal calf serum stimulated, 24 h) was 15.6 ± 2.8 µM. For the same compound, the “symptoms of intermittent claudication” value [2] was “stabilization of symptoms”, the “symptoms and restenosis of the vessel” value [3] was “comparable results” and the “symptoms / restenosis after angioplasty” value [4] was “comparable results, i.e., no restenosis”. For the same compound, the “re-elevation of pressure / restenosis of the renal artery” value [5] was “comparable results, i.e., no restenosis” and the “progression and visual symptoms” value [6] was “comparable results, i.e., no restenosis”.
